Eight molecules from patent publication EP4635969A1, “NOVEL GLUCOCORTICOID, METHOD FOR PREPARING SAME, AND USE THEREOF” (Tianjin Pharmaceutical Biotechnology Co., Ltd., priority 2022, dated 2024) can be followed below.

Holding throughout (assay type): cell-based
The target in assay [1] is T1, glucocorticoid receptor (GR) (Homo sapiens, UniProt P04150).
T1 sequence (P04150 521-777): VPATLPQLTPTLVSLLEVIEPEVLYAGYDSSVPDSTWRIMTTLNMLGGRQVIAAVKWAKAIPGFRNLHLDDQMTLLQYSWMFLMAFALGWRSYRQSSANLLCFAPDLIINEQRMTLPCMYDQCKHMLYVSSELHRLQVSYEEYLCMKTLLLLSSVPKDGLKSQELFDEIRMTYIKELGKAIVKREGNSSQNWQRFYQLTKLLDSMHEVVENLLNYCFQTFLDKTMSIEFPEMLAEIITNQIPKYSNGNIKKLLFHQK
In words: Assay for agonist activity on glucocorticoid receptor (luciferase reporter, HEK293 cells transfected with pBIND-GR plasmid). An outline of the steps: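 HEK293 cells transfected with pBIND-GR, seeded in phenol red-free DMEM with 5% charcoal-stripped serum, then exposed to compounds in a 10-point, 4-fold dilution series from 10 µM, in duplicate. Luciferase luminescence read after incubation; EC50 from nonlinear fit. Vehicle blank: 0.1% DMSO.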
(In general: A reporter such as luciferase makes a cellular process visible.)

Assay [2] has as its target T2, progesterone receptor (PR) (Homo sapiens, UniProt P06401).
T2 sequence (P06401 678-933): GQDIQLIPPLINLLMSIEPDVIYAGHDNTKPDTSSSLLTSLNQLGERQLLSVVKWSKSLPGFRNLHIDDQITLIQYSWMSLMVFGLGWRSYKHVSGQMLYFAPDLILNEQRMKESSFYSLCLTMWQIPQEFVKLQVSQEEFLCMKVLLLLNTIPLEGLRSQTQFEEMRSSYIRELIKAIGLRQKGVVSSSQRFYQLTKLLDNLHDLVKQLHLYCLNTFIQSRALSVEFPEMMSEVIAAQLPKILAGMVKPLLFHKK
In words: Assay for agonist activity on progesterone receptor (luciferase reporter, HEK293 cells transfected with pBIND-PR plasmid). The note with it: for EC50: EC50 of agonist activity, HEK293 reporter cells, top concentration 50 µM, read-out: Nuclear receptor enzyme activity (nM) PR; for Target selectivity PR/GR: ratio of EC50 values. Here is the method: (§1) Pharmacological Example 2: Assay for Agonist Activity on Mineralocorticoid Receptor (MR) and Progesterone Receptor (PR)
(§2) Test compound stock solutions: The test compounds (compounds 4, 5, 7, 8, 9, 11, 13, 16, 17, 18, 22, 23, 24, 34, 35, 36, 38, 41, 45, 47, 53, 55, and 59) were accurately weighed, dissolved in DMSO to prepare stock solutions at a concentration of 20 mM, and stored at -20 °C.
(§3) The test compounds were subjected to a 4-fold serial dilution starting from an initial concentration of 50 µ M, generating a 12-point concentration gradient with duplicate wells for each concentration. The blank control consisted of 0.1% DMSO.
(§4) The HEK293 stable cell lines […] transfected with mineralocorticoid receptor (MR) and progesterone receptor (PR) (ICE Bioscience, Lot No. TYP-20220819, TPJ-20220812) were cultured in Dulbecco's Modified Eagle Medium (DMEM) supplemented with 10% fetal bovine serum (FBS) and 200 µ g/ml Hygromycin B in a cell incubator containing 5% CO2 at 37 °C. The spent medium was aspirated, and the cells were washed once with phosphate-buffered saline (PBS). Then, 1 mL of TrypLE™ Express solution was added, and the cells were incubated at 37 °C for approximately 2 min. When the cells detached from the bottom of the cell culture dish, approximately 5 mL of pre-warmed complete medium at 37 °C was added. The cell suspension was gently pipetted with a pipette to dissociate clumped cells. The cell suspension was transferred to a sterile centrifuge tube and centrifuged at 1000 rpm for 5 min to pellet the cells for experiments or subculture..
(§5) HEK293 cells were digested and seeded into 6-cm culture dishes. The pBIND-MR and pBIND-PR plasmids were separately transfected into the HEK293 cells using a transfection reagent, resulting in HEK293 cells successfully transfected with the pBIND-MR and pBIND-PR plasmids, respectively. The cells were resuspended in phenol red-free DMEM medium containing 5% charcoal-stripped serum, counted, and then seeded into 96-well plates. The test compounds were added, and the plates were then incubated in an incubator. The luminescence signal values were measured using a multimode microplate reader following the instructions of the luciferase assay kit. The EC50 values of each test compound were calculated using the nonlinear fitting formula with GraphPad Prism 8.0 software.

The target in assay [3] is T3, mineralocorticoid receptor (MR) (Homo sapiens, UniProt P08235).
T3 sequence (P08235 726-984): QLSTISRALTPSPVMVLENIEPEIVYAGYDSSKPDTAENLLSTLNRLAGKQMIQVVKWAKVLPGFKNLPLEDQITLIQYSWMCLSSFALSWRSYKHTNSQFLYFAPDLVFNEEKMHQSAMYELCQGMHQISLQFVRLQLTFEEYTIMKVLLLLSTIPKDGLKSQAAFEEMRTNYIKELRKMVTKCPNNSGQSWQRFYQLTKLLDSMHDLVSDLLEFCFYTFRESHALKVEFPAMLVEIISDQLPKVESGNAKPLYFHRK
In words: Assay for agonist activity on mineralocorticoid receptor (luciferase reporter, HEK293 cells transfected with pBIND-MR plasmid). The note with it: for EC50: EC50 of agonist activity, HEK293 reporter cells, top concentration 50 µM, read-out: Nuclear receptor enzyme activity (nM) MR; for Target selectivity MR/GR: ratio of EC50 values. As for the experimental part:
as §1, §2, §3, §4, §5

Where [4] appears, read: EC50 of agonist activity, HEK293 reporter cells, read-out: Nuclear receptor enzyme activity (nM) GR.
Where [5] appears, read: HEK293 cells transfected with pBIND-GR, luciferase signal, read-out: GR agonist EC50.

Where two headings read alike, the source gives them in different places.

For `C[C@]12C=CC(=O)C=C1[C@@H](F)C[C@H]1[C@@H]3C[C@H]4OC(C5CCN(C(=O)C6COC(=O)C6)CC5)O[C@@]4(C(=O)SCF)[C@@]3(C)C[C@H](O)[C@@]12F` (stereo partly drawn) [Compound 4, S-(Fluoromethyl) (2S,6aS,6bR,7S,8aS,8bS,11aR,12aS,12bS)-2,6b-difluoro-7-hydroxy-6a,8a-dimethyl-4-oxo-10-(1-(5-oxotetrahydrofuran-3-carbonyl)piperidin-4-yl)-1,2,4,6a,6b,7,8,8a,11a,12,12a,12b-dodecahydro-8bH-naphtho[2',1':4,5]indeno[1,2-d][1,3]dioxole-8b-carbothioate], the EC50 in assay [1] (setting [4]) is 11.8 nM; in assay [1] (setting [5]), 11.8 nM; in assay [2] it was greater than 50000 nM; in assay [3], greater than 50000 nM. Moreover, the “Target selectivity PR/GR” value in assay [2] is greater than 4223. Further, the “Target selectivity MR/GR” value in assay [3] was greater than 4223.

As for `C[C@]12C=CC(=O)C=C1[C@@H](F)C[C@H]1[C@@H]3C[C@H]4OC(c5ccc(NC(=O)C6COC(=O)C6)cc5)O[C@@]4(C(=O)SCF)[C@@]3(C)C[C@H](O)[C@@]12F` (stereo partly drawn) [Compound 5, S-(Fluoromethyl) (2S,6aS,6bR,7S,8aS,8bS,11aR,12aS,12bS)-2,6b-difluoro-7-hydroxy-6a,8a-dimethyl-4-oxo-10-(4-(5-oxotetrahydrofuran-3-carboxamido)phenyl)-1,2,4,6a,6b,7,8,8a,11a,12,12a,12b-dodecahydro-8b H-naphtho[2',1':4,5]indeno[1,2-d][1,3]dioxole-8b-carbothioate], the EC50 is 5.23 nM in assay [1] (setting [4]), 5.23 nM in assay [1] (setting [5]), greater than 50000 nM in assay [2] and greater than 50000 nM in assay [3]. Also, the “Target selectivity PR/GR” value in assay [2] is greater than 9560. Besides, the “Target selectivity MR/GR” value in assay [3] is recorded as greater than 9560.

Take `C[C@]12C=CC(=O)C=C1[C@@H](F)C[C@H]1[C@@H]3C[C@H]4OC(c5ccc(COC6CCOC6=O)cc5F)O[C@@]4(C(=O)CO)[C@@]3(C)C[C@H](O)[C@@]12F` (stereo partly drawn) [Compound 7, (2S,6aS,6bR,7S,8aS,8bS,11aR,12aS,12bS)-2,6b-Difluoro-10-(2-fluoro-4-(((2-oxotetrahydrofuran-3-yl)oxy)methyl)phenyl)-7-hydroxy-8b-(2-hydroxyacetyl)-6a,8a-dimethyl-1,2,6a,6b,7,8,8a,8b,11a, 12,12a,12b-dodecahydro-4H-naphtho[2',1':4,5]indeno[1,2-d][1,3]dioxol-4-one]: the EC50 in assay [1] (setting [4]) was 1.21 nM; in assay [1] (setting [5]), 1.21 nM; in assay [2], greater than 50000 nM; in assay [3], greater than 50000 nM. Further, the “Target selectivity PR/GR” value in assay [2] is recorded as > 4.1×10^4. Further, the “Target selectivity MR/GR” value in assay [3] was > 4.1×10^4.

Turning to `C[C@]12C=CC(=O)C=C1[C@@H](F)C[C@H]1[C@@H]3C[C@H]4OC(c5ccc(CNC6CCOC6=O)cc5)O[C@@]4(C(=O)CO)[C@@]3(C)C[C@H](O)[C@@]12F` (stereo partly drawn) [Compound 9, (2S,6aS,6bR,7S,8aS,8bS,11aR,12aS,12bS)-2,6b-Difluoro-7-hydroxy-8b-(2-hydroxyacetyl)-6a,8a-dimethyl-10-(4-(((2-oxotetrahydrofuran-3-yl)amino)methyl)phenyl)-1,2,6a,6b,7,8,8a,8b,11a,12,12 a,12b-dodecahydro-4H-naphtho[2',1':4,5]indeno[1,2-d][1,3]dioxol-4-one], the EC50 was 3.27 nM in assay [1] (setting [4]), 3.27 nM in assay [1] (setting [5]), greater than 50000 nM in assay [2] and greater than 50000 nM in assay [3]. In assay [2], the “Target selectivity PR/GR” value was > 1.5×10^4. Also, the “Target selectivity MR/GR” value in assay [3] is > 1.5×10^4.

Regarding `C[C@]12C=CC(=O)C=C1[C@@H](F)C[C@H]1[C@@H]3C[C@H]4OC(c5ccc(OCC6CCOC6=O)cc5)O[C@@]4(C(=O)CO)[C@@]3(C)C[C@H](O)[C@@]12F` (stereo partly drawn) [Compound 13, (2S,6aS,6bR,7S,8aS,8bS,11aR,12aS,12bS)-2,6b-Difluoro-7-hydroxy-8b-(2-hydroxyacetyl)-6a,8a-dimethyl-10-(4-((2-oxotetrahydrofuran-3-yl)methoxy)phenyl)-1,2,6a,6b,7,8,8a,8b,11a,12,12a,12b-dodecahydro-4H-naphtho[2',1':4,5]indeno[1,2-d][1,3]dioxol-4-one], the EC50 in assay [1] (setting [4]) was 3.43 nM; in assay [1] (setting [5]) it was 3.43 nM; in assay [2] it was greater than 50000 nM; in assay [3] it was greater than 50000 nM. The “Target selectivity PR/GR” value in assay [2] is reported as > 1.4×10^4. Besides, the “Target selectivity MR/GR” value in assay [3] was > 1.4×10^4.

Take `C[C@]12C=CC(=O)C=C1CC[C@H]1[C@@H]3C[C@H]4OC(c5ccc(CNC6CCOC6=O)cc5)O[C@@]4(C(=O)CO)[C@@]3(C)C[C@H](O)[C@@]12F` (stereo partly drawn) [Compound 18, (6aS,6bR,7S,8aS,8bS,11aR,12aS,12bS)-6b-Fluoro-7-hydroxy-8b-(2-hydroxyacetyl)-6a,8a-dimethyl-10-(4-(((2-oxotetrahydrofuran-3-yl)amino)methyl)phenyl)-1,2,6a,6b,7,8,8a,8b,11a,12,12a,12b-dodecahydro-4H-naphtho[2',1':4,5]indeno[1,2-d][1,3]dioxol-4-one]: the EC50 was 1.62 nM in assay [1] (setting [4]), 1.62 nM in assay [1] (setting [5]), greater than 50000 nM in assay [2] and greater than 50000 nM in assay [3]. In assay [2], the “Target selectivity PR/GR” value is reported as > 3.1×10^4. The “Target selectivity MR/GR” value in assay [3] is reported as > 3.1×10^4.

Regarding `C[C@]12C=CC(=O)C=C1CC[C@H]1[C@@H]3C[C@H]4OC(c5ccc(CNC6CCOC6=O)cc5)O[C@@]4(C(=O)CO)[C@@]3(C)C[C@H](O)[C@@]12Cl` (stereo partly drawn) [Compound 24, (6aS,6bR,7S,8aS,8bS,11aR,12aS,12bS)-6b-Chloro-7-hydroxy-8b-(2-hydroxyacetyl)-6a,8a-dimethyl-10-(4-(((2-oxotetrahydrofuran-3-yl)amino)methyl)phenyl)-1,2,6a,6b,7,8,8a,8b,11a,12,12a,12b-dodecahydro-4H-naphtho[2',1':4,5]indeno[1,2-d][1,3]dioxol-4-one], the EC50 in assay [1] (setting [4]) is 1.12 nM; in assay [1] (setting [5]), 1.12 nM; in assay [2], greater than 50000 nM; in assay [3] it was greater than 50000 nM. Besides, the “Target selectivity PR/GR” value in assay [2] was > 4.5×10^4. Besides, in assay [3], the “Target selectivity MR/GR” value is recorded as > 4.5×10^4.

Take `C[C@]12C=CC(=O)C=C1CC[C@H]1[C@@H]3C[C@H]4OC(c5ccc(CSC6CCOC6=O)cc5)O[C@@]4(C(=O)CCl)[C@@]3(C)C[C@H](O)[C@@]12Cl` (stereo partly drawn) [Compound 38, (6aS,6bR,7S,8aS,8bS,11aR,12aS,12bS)-6b-chloro-8b-(2-chloroacetyl)-7-hydroxy-6a,8a-dimethyl-10-(4-(((2-oxotetrahydrofuran-3-yl)thio)methyl)phenyl)-1,2,6a,6b,7,8,8a,8b,11a,12,12a,12b-dode cahydro-4H-naphtho[2',1':4,5]indeno[1,2-d][1,3]dioxol-4-one]: the EC50 in assay [1] (setting [4]) is 0.11 nM; in assay [1] (setting [5]), 0.11 nM; in assay [2], greater than 50000 nM; in assay [3], greater than 50000 nM. The “Target selectivity PR/GR” value in assay [2] is listed as > 4.5×10^5. Further, the “Target selectivity MR/GR” value in assay [3] is given as > 4.5×10^5.
